How the values were obtained:
[1] = Evaluation of light fastness (compound residual rate after xenon light irradiation of ink jet image); format: physicochemical; settings: aqueous coloring compositions 1 to 8 and A to C; image on art paper, xenon light 85,000 lux, 100 hours
From the text: The pigment dispersion liquid 1, a polyurethane resin (HYDRAN (registered trademark) AP-40F (manufactured by DIC Corporation)), and deionized water were mixed to produce an aqueous pigment dispersion liquid 1 having a pigment content of 10% by mass and a polyurethane resin non-volatile content of 2% by mass.
The following components were mixed to obtain a coloring composition 1.
Coloring compositions 2 to 8 were obtained in the same manner as in the above-described method, except that the pigment dispersion liquid 1 was changed to each of the pigment dispersion liquids 2 to 8.
A coloring composition A was obtained in the same manner as in the above-described method, except that the pigment dispersion liquid 1 was changed to the pigment dispersion liquid A. […]
The above-described image was irradiated with xenon light (85,000 lux) for 100 hours using a weather meter (manufactured by Atlas, Ci65), and a reflection density after the irradiation with xenon light was measured using a reflection densitometer (manufactured by X-Rite, Inc., trade name: X-Rite i1Pro). […]
A compound residual rate (%) before and after the irradiation with xenon light was calculated from the following expression, and evaluated based on the following evaluation standard. […]

[2] = Evaluation of storage stability (viscosity increase proportion after storage); format: physicochemical; settings: aqueous coloring compositions 1 to 8 and A to C; stored 7 days at 45° C., viscosity at 25° C.
Procedure: In an environment of 45° C. by an oven, the coloring compositions 1 to 8 and the coloring compositions A to C were stored for 7 days.
A viscosity of the coloring composition before and after the storage was measured, a viscosity increase proportion (Viscosity after storage−Viscosity before storage)/Viscosity before storage×100 was determined, and the evaluation was performed based on the following evaluation standard.
The viscosity of the coloring composition was measured using a viscometer RE85L (rotor: 1°34′×R24, measurement range: 0.6 to 1200 mPa·s) manufactured by TOKI-SANGYO Co., Ltd. in a state in which the temperature was adjusted to 25° C.
• A: viscosity increase proportion was 10% or less. • B: viscosity increase proportion was more than 10%.

Substance: C. I. Pigment Green 58 [PG58]
- Evaluation of light fastness [1]: A (compound residual rate was 80% or more)
- Evaluation of storage stability [2]: B (viscosity increase proportion was more than 10%)

— US20250197642A1, “PHTHALOCYANINE PIGMENT, PHTHALOCYANINE COMPOUND, COLORING COMPOSITION, METHOD FOR PRODUCING PHTHALOCYANINE PIGMENT, AND METHOD FOR PRODUCING COLORING COMPOSITION” (FUJIFILM CORPORATION, priority 2022, published 2025)
